Laboratory results reported in patent publication US20210361577A1, “LIPOPHILIC TRANSPORT PARTICLES FOR COSMETIC OR PHARMACEUTICAL ACTIVE INGREDIENTS” (IOI OLEO GMBH, priority 2018, published 2021).
Like-named read-outs stand apart in the source and are kept apart here.

Experiments:
[1] = active ingredient loading of carrier particles made by spray drying; assay type: physicochemical; details: spray drying process
From the text: The carrier particles which are provided fulfil their purpose when they are loaded with an active ingredient, in particular a pharmaceutical active ingredient. This may, for example, be carried out by means of a spray drying process in accordance with claim 22, in which the active ingredient and the PGFE or PGFEs are initially dissolved and/or suspended in a suitable organic solvent and then are separated from the solvent once more by spray drying. Examples of suitable solvents are the ether tetrahydrofuran, the alcohol ethanol, the ketone acetone, the ester ethyl acetate or the alkane heptane. It has been shown that by means of spray drying, loading with a pharmaceutical active ingredient of up to 30% by weight is possible.
Lipophilic carrier particles in accordance with claim 1 can advantageously be loaded with pharmaceutical active ingredients from the group formed by non-steroidal antirheumatic agents.

[2] = contact angle with purified water (hydrophobicity) and its storage stability; assay type: physicochemical; details: after 16 weeks at room temperature (20° C.) and at 40° C.
Method: An advantageous property of the PGFEs for lipophilic carrier particles in accordance with claim 1 which should be considered is the hydrophobicity, which can be determined by determining the contact angle. The determination of the hydrophobicity is carried out by determining the contact angle between the PGFE in the solid physical state and a droplet of purified water. According to Young's equation, cos θ=(γSV−γSL)/γLV, wherein γSL is the interfacial tension between the PGFE and water, γLV is the interfacial tension of the water droplet and γSV is the surface tension between the PGFE and the surrounding air. θ is the contact angle. Thus, the larger the contact angle θ, the higher is the surface tension between the PGFE and the water and the higher is the hydrophobicity of the PGFE under investigation. The contact angles for the proposed polyglycerol fatty acid esters also correlate with the HLB value which is often used in pharmaceutical technology, which is on a scale of 0 to 20 and provides information regarding the ratio of lipophilic to hydrophilic molecular fractions, wherein the hydrophilic fraction increases with increasing HLB value. […]

[3] = cited from earlier work

loading of the carrier particles with active ingredient [1]	contact angle deviation from starting value on storage [2]	SMILES	increase in the crystal thickness ([3]; a- to b-modification transformation)	average lamellar structures per subcellular unit ([3]; a-modification)	average lamellar structures per subcellular unit ([3]; after complete transformation into the b-modification)
up to 30 % by weight		CC(C)Cc1ccc(C(C)C(=O)O)cc1 (centres unmarked) [ibuprofen]			
	40 °	CCCCCCCCCCCCCCCCCC(=O)OCC(COC(=O)CCCCCCCCCCCCCCCCC)OC(=O)CCCCCCCCCCCCCCCCC [glycerol tristearate]	approximately 67%	6	10.5
